Laboratory results published in patent US20120076842A1, “COSMETIC USE OF TYR-ARG DIPEPTIDE TO COMBAT CUTANEOUS SAGGING” (SEDERMA, priority 2009, published 2012).

Assays:
[1] = system: LOXL-1 in reconstructed skin specimens (Full Thickness Skin PHENION); experiment: LOXL-1 (lysyl oxydase like 1) synthesis in reconstructed skin specimens (immunolabeling); assay type: cell-based; conditions: TGF-β1 used as positive control
Procedure: LOXL synthesis was analyzed by preparations containing Tyr-Arg dipeptide in reconstructed skin specimens (Full Thickness Skin PHENION).
LOXL synthesis after application of the dipeptide was evaluated by an immunohistochemical analysis.
Preparations of Tyr-Arg dipeptide were applied to the surface of ? aged ? or not ? aged ? skins from the evening of D1 then every day. The skins were thereafter frozen for the immunohistochemical analysis.

[2] = system: elastin/tropoelastin, NHDF; experiment: Synthesis of elastin/tropoelastin by normal human fibroblasts (immunolabeling, image analysis); assay type: cell-based; conditions: TGF-β1, vs control
Procedure: Principle: normal human fibroblastes (NHDF) were cultured to confluence. The cells were then exposed or not to preparations containing Tyr-Arg peptide. The cellular layers are then marked with an antibody recognising specifically elastine.

[3] = system: Fibulin-5 synthesis by NHDF; experiment: Fibulin-5 synthesis by NHDF (Western Blot method); assay type: cell-based, human; conditions: 10^−6% TGF-β1
Procedure: NHDF were cultured to confluence. The cells were exposed or not exposed to preparations containing Tyr-Arg dipeptide. The cell layers were then lysed and analyzed using the Western Blot* method. Fibulin-5 synthesis was detected using a specific antibody. The resulting bands were quantified using appropriate image-analysis software. * Western Blot: the cell layers were blended in lysis buffer. The lysate was applied to a polyacrylamide gel for electrophoresis. After migration, the proteins were transferred to a nitrocellulose membrane and the proteins of interest detected using a specific antibody. Image analysis was used to quantify the two fibulin-5 bands obtained.

[4] = system: transglutaminase activity in NHDF; experiment: Transglutaminase activity in NHDF (Dansyl Cadaverine substrate, fluorescence); assay type: cell-based, human; conditions: TGF-β1 10^−6%, vs control, n=6
Description: NHDF were cultivated until confluence. The cells were exposed or not exposed to preparations containing or not Tyr-Arg dipeptide. The cell layers are then exposed to transglutaminase substrate (Dansyl Cadaverine, DC). The fluorescence obtained is proportional to transglutaminase activity. (n=6).

[5] = system: Elastin/Tropoelastin by normal human fibroblasts; experiment: Release of Elastin/Tropoelastin by normal human fibroblasts (ELISA sandwich method); assay type: cell-based; conditions: TGF-β1 10-6% (positive control); vs control (placebo); n = 5
Procedure: Normal human dermal fibroblasts (NHDF) were cultured to confluence. The cells were then exposed or not to preparations comprising the Tyr-Arg dipeptide at different concentrations. The culture supernatants were assayed to determine the quantity of Elastin/Tropoelastin using an ELISA sandwich method. TGF-β1 was used as the positive control.

[6] = system: Fibrillin-1 by NHDF; experiment: Synthesis of Fibrillin-1 by NHDF (immunolabeling method); assay type: cell-based, human; conditions: TGF-β1 10^−6%, vs control
Procedure: As indicated in the introduction, elastin formation is not sufficient. The presence of microfibril scaffolding is necessary. The induction of Fibrillin-1 synthesis was thus investigated.
NHDF were cultured to confluence. The cells were then exposed or not exposed to Tyr-Arg dipeptide at different concentrations for 18 days. The cell layers were then labeled with an antibody to specifically detect Fibrillin-1 by immunofluorescence.
Standardized photographs enabled imaging and quantification of Fibrillin-1 synthesis by image analysis (n=4).

TGF-β1 [reference compound]
Effect on synthesis of LOXL-1 (positive control) [1]: expected effect stimulating the synthesis of LOXL-1 | % change (elastin/tropoelastin, immunolabeling) [2]: +87%; p < 0.01 | % change/Control (fibulin-5 bands) [3]: +55% p < 0.01 | Mean intensity (UA) of the fibulin-5 bands ([3]; control 18.6 +/− 4.3): 28.8 +/− 8 UA | % change of the transglutaminase activity (AFU/10^6 cells) [4]: +26%; p < 0.01 | % change in the elastin/tropoelastin synthesis [5]: +1127%; p < 0.01 | % change of Fibrillin-1 synthesis [6]: +760%; p < 0.01
